Assay results taken from PMC12797228 (ACS Infectious Diseases, 2025).
Values after ≈ are worked out from the molar mass of the structure shown. Values joined by “and” are separate entries in the source; they are usually repeats but may differ in a detail not shown here. Equal entries are not always repeated. Where two headings read alike, the source gives them in different places.

What was measured:
[1] = target: T1, wild-type B. anthracis gyrase (Bacillus anthracis, UniProt A0A6H3A7B1+Q9X3Y6); experiment: biochemical; conditions: IC50, inhibition of DNA supercoiling
T1 sequence (A0A6H3A7B1 1-823): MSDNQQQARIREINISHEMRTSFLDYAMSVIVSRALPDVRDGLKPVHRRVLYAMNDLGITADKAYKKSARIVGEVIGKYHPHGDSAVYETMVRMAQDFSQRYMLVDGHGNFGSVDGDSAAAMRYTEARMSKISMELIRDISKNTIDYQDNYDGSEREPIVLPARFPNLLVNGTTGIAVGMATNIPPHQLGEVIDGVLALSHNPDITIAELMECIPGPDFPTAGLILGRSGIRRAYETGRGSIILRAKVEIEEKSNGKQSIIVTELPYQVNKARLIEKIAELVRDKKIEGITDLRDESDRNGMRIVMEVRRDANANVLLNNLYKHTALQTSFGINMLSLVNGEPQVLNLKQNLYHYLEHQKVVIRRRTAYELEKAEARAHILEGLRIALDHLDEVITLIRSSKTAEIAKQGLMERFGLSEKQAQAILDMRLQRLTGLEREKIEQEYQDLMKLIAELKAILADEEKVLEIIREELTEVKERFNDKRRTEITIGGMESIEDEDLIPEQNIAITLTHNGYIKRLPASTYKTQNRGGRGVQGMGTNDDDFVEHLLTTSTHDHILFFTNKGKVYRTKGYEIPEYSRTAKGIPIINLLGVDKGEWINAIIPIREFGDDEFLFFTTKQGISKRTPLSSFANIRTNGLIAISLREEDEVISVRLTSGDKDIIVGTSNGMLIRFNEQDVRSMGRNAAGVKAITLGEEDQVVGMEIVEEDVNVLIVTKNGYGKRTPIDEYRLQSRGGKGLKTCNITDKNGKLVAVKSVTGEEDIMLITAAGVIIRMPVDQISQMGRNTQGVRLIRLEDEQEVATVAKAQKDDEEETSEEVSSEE
T1 sequence (Q9X3Y6 whole entry): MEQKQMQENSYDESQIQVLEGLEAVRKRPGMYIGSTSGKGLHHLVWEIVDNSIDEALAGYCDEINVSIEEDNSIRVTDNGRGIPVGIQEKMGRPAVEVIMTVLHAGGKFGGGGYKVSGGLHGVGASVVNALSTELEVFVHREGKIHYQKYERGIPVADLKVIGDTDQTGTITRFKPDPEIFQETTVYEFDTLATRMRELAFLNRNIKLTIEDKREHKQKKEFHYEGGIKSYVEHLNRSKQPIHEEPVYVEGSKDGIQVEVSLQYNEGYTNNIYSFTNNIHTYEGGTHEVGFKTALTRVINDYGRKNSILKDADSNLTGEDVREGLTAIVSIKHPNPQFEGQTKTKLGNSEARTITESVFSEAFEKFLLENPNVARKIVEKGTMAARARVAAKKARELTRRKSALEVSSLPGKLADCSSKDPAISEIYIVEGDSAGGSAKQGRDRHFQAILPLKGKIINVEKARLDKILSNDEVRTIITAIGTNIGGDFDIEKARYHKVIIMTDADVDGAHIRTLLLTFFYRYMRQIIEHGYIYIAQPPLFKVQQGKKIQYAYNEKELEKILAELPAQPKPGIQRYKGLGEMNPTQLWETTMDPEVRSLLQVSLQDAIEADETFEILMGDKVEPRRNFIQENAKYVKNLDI

[2] = target: T2, wild-type B. anthracis topoisomerase IV (Bacillus anthracis, UniProt A0A6H3AG07+A0AAC8SCF4); experiment: biochemical; conditions: IC50, inhibition of DNA decatenation
T2 sequence (A0A6H3AG07 1-807): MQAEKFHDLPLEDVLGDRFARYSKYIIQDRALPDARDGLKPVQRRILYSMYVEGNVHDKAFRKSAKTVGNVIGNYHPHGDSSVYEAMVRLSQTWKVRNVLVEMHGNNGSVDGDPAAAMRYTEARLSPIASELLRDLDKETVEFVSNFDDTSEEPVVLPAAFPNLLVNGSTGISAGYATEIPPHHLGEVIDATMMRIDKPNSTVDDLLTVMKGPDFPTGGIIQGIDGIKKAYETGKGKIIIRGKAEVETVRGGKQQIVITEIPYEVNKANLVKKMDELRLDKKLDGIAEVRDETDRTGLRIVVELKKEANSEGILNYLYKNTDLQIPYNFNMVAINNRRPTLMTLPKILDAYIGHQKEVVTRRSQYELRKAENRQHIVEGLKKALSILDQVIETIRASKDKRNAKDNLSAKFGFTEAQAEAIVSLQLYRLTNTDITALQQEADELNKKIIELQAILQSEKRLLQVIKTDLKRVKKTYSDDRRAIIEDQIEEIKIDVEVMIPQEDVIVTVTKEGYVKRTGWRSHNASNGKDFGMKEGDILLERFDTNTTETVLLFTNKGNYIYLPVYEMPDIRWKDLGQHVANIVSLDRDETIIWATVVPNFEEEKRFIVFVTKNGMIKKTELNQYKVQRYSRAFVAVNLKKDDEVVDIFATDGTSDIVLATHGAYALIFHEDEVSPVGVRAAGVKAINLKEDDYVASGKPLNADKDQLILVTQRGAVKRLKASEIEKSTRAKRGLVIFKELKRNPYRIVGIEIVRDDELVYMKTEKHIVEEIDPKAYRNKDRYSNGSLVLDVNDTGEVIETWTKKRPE
T2 sequence (A0AAC8SCF4 1-654): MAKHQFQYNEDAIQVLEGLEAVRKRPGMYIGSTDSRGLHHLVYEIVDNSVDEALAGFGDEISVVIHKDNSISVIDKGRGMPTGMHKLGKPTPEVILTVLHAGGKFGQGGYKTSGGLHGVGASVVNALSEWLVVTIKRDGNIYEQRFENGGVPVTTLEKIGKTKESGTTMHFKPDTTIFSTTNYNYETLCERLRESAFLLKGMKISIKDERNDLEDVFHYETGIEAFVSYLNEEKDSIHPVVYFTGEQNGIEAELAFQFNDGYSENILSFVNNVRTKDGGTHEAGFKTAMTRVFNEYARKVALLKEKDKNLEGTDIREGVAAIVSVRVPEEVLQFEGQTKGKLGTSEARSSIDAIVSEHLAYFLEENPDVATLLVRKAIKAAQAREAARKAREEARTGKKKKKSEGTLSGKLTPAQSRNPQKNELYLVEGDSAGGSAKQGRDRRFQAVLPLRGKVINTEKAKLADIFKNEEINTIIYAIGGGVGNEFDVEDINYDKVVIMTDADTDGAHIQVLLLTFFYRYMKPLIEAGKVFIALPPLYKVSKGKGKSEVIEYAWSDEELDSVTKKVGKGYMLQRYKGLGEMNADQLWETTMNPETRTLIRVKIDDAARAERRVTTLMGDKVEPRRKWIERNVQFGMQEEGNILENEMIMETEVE

[3] = system: B. anthracis (Ames strain); design: species or system BALB/c mice; conditions: mouse, in vivo
B. anthracis = conditions: rabbit, in vivo; cited from earlier work
[4] = target: T1, wild-type B. anthracis gyrase; experiment: biochemical; conditions: EC50 (concentration that induces 50% maximal DNA cleavage)
[5] = system: 30-strain panel of B. anthracis; experiment: microbe, parasite or virus in culture; type: cell-based, Bacillus anthracis; conditions: for MIC50 / MIC90: Bacillus anthracis
[6] = female, BALB/c, mouse, in vivo
[7] = target: T2, wild-type B. anthracis topoisomerase IV; experiment: biochemical; conditions: EC50, DNA cleavage
[8] = mouse, in vivo, po, 100 mg/kg
in vitro = conditions: plasma
in vivo = conditions: female, BALB/c, mouse

O=C(O)c1cn(C2CC2)c2cc(N3CCNCC3)c(F)cc2c1=O [Ciprofloxacin, ciprofloxacin]
IC50 [1]: ~118000 nM and 118000 nM | IC50 [2]: ~178000 nM and 178000 nM | Mice that survived to study termination on day 30 (of 10) [3]: 10

O=c1ccc2ncc(=O)n3c2n1C[C@H]3CN1CCC(NCc2cc3c(cn2)OCCC3)CC1 [Gepotidacin, gepotidacin, reference compound]
Rabbits that survived for at least 30 days (B. anthracis): Ten out of 11 | IC50 [1]: ~23200 nM and 23200 nM | IC50 [2]: ~200 nM and 200 nM | EC50 [4]: 800 nM and ~800 nM | Range of MIC values [5]: 0.12 to 8 µg/mL | MIC50 [5]: 0.5 µg/mL (≈ 1.11 µM) | MIC90 [5]: 0.5 µg/mL (≈ 1.11 µM)

COc1ccc2ncc(F)c(C[C@H](O)[C@H]3OC[C@H](NCc4cnc5c(n4)NC(=O)CO5)CO3)c2n1 [OSUAB-0284, 6-(((trans-2-((S)-2-(3-fluoro-6-methoxy-1,5-naphthyridin-4-yl)-1-hydroxyethyl)-1,3-dioxan-5-yl)amino)methyl)-2H-pyrazino[2,3-b][1,4]oxazin-3(4H)-one]
IC50 [1]: ~6300 nM and 6300 nM | IC50 [2]: ~100 nM and 100 nM | Lung total bacterial burden and spore counts compared with the ciprofloxacin group [3]: No significant differences | Survival [3]: 100% and 90% and 90–100% | dose-corrected exposure, higher vs lower dose group [6]: 1.5 fold | Lung AUC0-last ([6]; iv, 10 mg/kg): 4,830 ng*h/mL | Lung AUCinf ([6]; iv, 10 mg/kg): 5,033 ng*h/mL | Lung AUC0-last ([6]; po, 10 mg/kg): 3,314 ng*h/mL | Lung AUCinf ([6]; po, 10 mg/kg): 3,615 ng*h/mL | Lung AUC0-last ([6]; po, 50 mg/kg): 37,227 ng*h/mL | Lung AUCinf ([6]; po, 50 mg/kg): 44,292 ng*h/mL | EC50 [7]: 40 nM and ~40 nM | EC50 [4]: 700 nM and ~700 nM | Adverse events or cage-side observations [8]: No adverse events or cage-side observations were noted | Range of MIC values [5]: ≤0.03 to 4 µg/mL | MIC50 [5]: 0.06 µg/mL (≈ 0.123 µM) | MIC90 [5]: 0.25 µg/mL (≈ 0.514 µM) | fraction unbound (in vitro): 0.31 | Kp (in vivo): 0.36 to 0.53 | half-life (in vivo): 2.6 h | bioavailability (in vivo; 10 mg/kg): 80.6% | AUC(0-inf) (in vivo; iv, 10 mg/kg): 11400 ng·h/mL | AUC(0-t) (in vivo; iv, 10 mg/kg): 10800 ng·h/mL | Cmax (in vivo; iv, 10 mg/kg): 17600 ng/mL | Tmax (in vivo; iv, 10 mg/kg): 0.0833 h | half-life (in vivo; iv, 10 mg/kg): 2.6 h | AUC(0-inf) (in vivo; po, 10 mg/kg): 9160 ng·h/mL | AUC(0-t) (in vivo; po, 10 mg/kg): 8470 ng·h/mL | Cmax (in vivo; po, 10 mg/kg): 6280 ng/mL | Tmax (in vivo; po, 10 mg/kg): 0.25 h | half-life (in vivo; po, 10 mg/kg): 2.6 h | AUC(0-inf) (in vivo; po, 50 mg/kg): 70200 ng·h/mL | AUC(0-t) (in vivo; po, 50 mg/kg): 63000 ng·h/mL | Cmax (in vivo; po, 50 mg/kg): 50300 ng/mL | Tmax (in vivo; po, 50 mg/kg): 0.25 h | half-life (in vivo; po, 50 mg/kg): 2.6 h
